Measured values published in PMC12548092, “Exploring Helical Fraying Linked to Dynamics and Catalysis in Adenylate Kinase” (Biochemistry, 2025).

Target: T1, hAK1 (Homo sapiens, UniProt P00568)
T1 construct: gene AK1; pET24d, E. coli BL21 (DE3), Blue Sepharose and size exclusion; 15N/13C-labelled
T1 sequence (P00568 1-194): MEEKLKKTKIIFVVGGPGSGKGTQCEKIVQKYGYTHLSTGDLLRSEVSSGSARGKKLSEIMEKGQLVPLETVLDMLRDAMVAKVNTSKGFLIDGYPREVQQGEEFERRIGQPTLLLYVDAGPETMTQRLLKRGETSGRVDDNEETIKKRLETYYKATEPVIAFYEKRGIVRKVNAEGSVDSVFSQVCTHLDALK
Test: NMR backbone assignment and […] relaxation order parameters
Type: binding
Conditions: 30 mM MES, 50 mM NaCl, pH 5.5 (assignment), 298 K

## Nc1ncnc2c1ncn2[C@@H]1O[C@H](COP(=O)(O)OP(=O)(O)OP(=O)(O)OP(=O)(O)OP(=O)(O)OC[C@H]2O[C@@H](n3cnc4c(N)ncnc43)[C@H](O)[C@@H]2O)[C@@H](O)[C@H]1O [Ap5A]
  NMR backbone assignment and 15N relaxation order parameters: one helical turn in the α-helix at the N-terminus of the catalytic loop
